From PubChem BioAssay AID248 (DTP/NCI, 2004) come the findings set out here.

The test concerns L1210 leukemia ip in BDF1 mice, survival T/C. Put plainly: NCI In Vivo Anticancer Drug Screen. Data for tumor model L1210 Leukemia (intraperitoneal) in B6D2F1 (BDF1) mice. Conditions: higher = longer survival. The protocol:
The antitumor activity of compounds was measured in mice bearing transplantable tumors. Survival or tumor size were measured and the results are expressed as the measurement made in the treated group (T) divided by the measurement made in the vehicle treated control group (C). The tumor model used in this assay is L1210 Leukemia (intraperitoneal) in B6D2F1 (BDF1) mice

[1] abbreviates: endpoint: mean survival time, dose: 50.0 mg/kg/injection, schedule: Q01DX009 (ip), vehicle: Klucel (hydroxypropylcellulose) (HPC).
The mark [2] stands for this setting: endpoint: mean survival time, dose: 100.0 mg/kg/injection, schedule: Q01DX009 (ip), vehicle: Klucel (hydroxypropylcellulose) (HPC).
The mark [3] stands for this setting: endpoint: mean survival time, dose: 100.0 mg/kg/injection, schedule: Q04DX003 (ip), vehicle: Klucel (hydroxypropylcellulose) (HPC).
Where [4] appears, read: endpoint: mean survival time, dose: 200.0 mg/kg/injection, schedule: Q01DX009 (ip), vehicle: Klucel (hydroxypropylcellulose) (HPC).
Setting [5] is: endpoint: mean survival time, dose: 200.0 mg/kg/injection, schedule: Q04DX003 (ip), vehicle: Klucel (hydroxypropylcellulose) (HPC).
[6] abbreviates: endpoint: mean survival time, dose: 400.0 mg/kg/injection, schedule: Q01DX009 (ip), vehicle: Klucel (hydroxypropylcellulose) (HPC).
The mark [7] stands for this setting: endpoint: mean survival time, dose: 400.0 mg/kg/injection, schedule: Q04DX003 (ip), vehicle: Klucel (hydroxypropylcellulose) (HPC).
[8] abbreviates: endpoint: mean survival time, dose: 400.0 mg/kg/injection, schedule: Q01DX001 (ip), vehicle: saline with Tween-80.
Where [9] appears, read: endpoint: mean survival time, dose: 100.0 mg/kg/injection, schedule: Q01DX001 (ip), vehicle: saline with Tween-80.
Setting [10] is: endpoint: mean survival time, dose: 100.0 mg/kg/injection, schedule: Q01DX001 (ip), vehicle: carboxymethylcellulose (CMC).
Where [11] appears, read: endpoint: mean survival time, dose: 200.0 mg/kg/injection, schedule: Q01DX001 (ip), vehicle: carboxymethylcellulose (CMC).
The mark [12] stands for this setting: endpoint: mean survival time, dose: 400.0 mg/kg/injection, schedule: Q01DX001 (ip), vehicle: carboxymethylcellulose (CMC).
The mark [13] stands for this setting: endpoint: mean survival time, dose: 50.0 mg/kg/injection, schedule: Q01DX001 (ip), vehicle: saline.
Where [14] appears, read: endpoint: mean survival time, dose: 100.0 mg/kg/injection, schedule: Q01DX001 (ip), vehicle: saline.
[15] abbreviates: endpoint: mean survival time, dose: 200.0 mg/kg/injection, schedule: Q01DX001 (ip), vehicle: saline.
[16] abbreviates: endpoint: mean survival time, dose: 400.0 mg/kg/injection, schedule: Q01DX001 (ip), vehicle: saline.
Setting [17] is: endpoint: mean survival time, dose: 100.0 mg/kg/injection, schedule: Q04DX003 (ip), vehicle: saline with Tween-80.

Values joined by “and” are separate entries in the source; they are usually repeats but may differ in a detail not shown here. Equal entries are not always repeated. Inconclusive results and toxic doses are left out.

Regarding `O=C1CN(O)C(c2ccccc2)=c2cc(Cl)ccc2=N1`, the T/C (endpoint: mean survival time, dose: 25.0 mg/kg/injection, schedule: Q01DX009 (ip), vehicle: Klucel (hydroxypropylcellulose) (HPC)) was 100 % of control; the T/C (endpoint: mean survival time, dose: 25.0 mg/kg/injection, schedule: Q04DX003 (ip), vehicle: Klucel (hydroxypropylcellulose) (HPC)) is 98 % of control; the T/C under setting [1] is 101 % of control; the T/C (endpoint: mean survival time, dose: 50.0 mg/kg/injection, schedule: Q04DX003 (ip), vehicle: Klucel (hydroxypropylcellulose) (HPC)) is 108 % of control; the T/C under setting [2] was 95 % of control; the T/C under setting [3] was 90 % of control. The T/C was 92 % of control under setting [4], 93 % of control under setting [5], 108 % of control under setting [6] and 98 % of control under setting [7].
As for `CC(/C=C/c1ccc(O)cc1)=N\O`, the T/C (endpoint: mean survival time, dose: 100.0 mg/kg/injection, schedule: Q01DX009 (ip), vehicle: saline with Tween-80) is 89 % of control and the T/C (endpoint: mean survival time, dose: 200.0 mg/kg/injection, schedule: Q01DX009 (ip), vehicle: saline with Tween-80) was 100 % of control.
With `c1cc2c(cc1-c1nnc(-c3ccc4c(c3)OCO4)nn1)OCO2`, the T/C under setting [8] was 86 % of control.
On to `O=C(ON=C(c1ccc(Cl)cc1)c1ccc(Cl)cc1)c1ccc(Cl)cc1`, for which the T/C (endpoint: median survival time, dose: 300.0 mg/kg/injection, schedule: Q01DX009 (ip), vehicle: Klucel (hydroxypropylcellulose) (HPC)) is 157 % of control; the T/C (endpoint: median survival time, dose: 500.0 mg/kg/injection, schedule: Q01DX009 (ip), vehicle: Klucel (hydroxypropylcellulose) (HPC)) was 88 % of control; the T/C (endpoint: median survival time, dose: 833.0 mg/kg/injection, schedule: Q01DX009 (ip), vehicle: Klucel (hydroxypropylcellulose) (HPC)) is 74 % of control.
As to `Cc1ccc(CN(C)N=Nc2ccccc2)cc1`, the T/C runs as follows: (endpoint: mean survival time, dose: 100.0 mg/kg/injection, schedule: Q04DX002 (ip), vehicle: Klucel (hydroxypropylcellulose) (HPC)) 91 % of control; (endpoint: mean survival time, dose: 200.0 mg/kg/injection, schedule: Q04DX002 (ip), vehicle: Klucel (hydroxypropylcellulose) (HPC)) 102 % of control.
On to `O=C1OC(=O)c2ccc(SCC(O)CCl)c3cccc1c23` (stereo not drawn), for which the T/C reads like this: (endpoint: mean survival time, dose: 25.0 mg/kg/injection, schedule: Q01DX009 (ip), vehicle: other) 98 % of control; (endpoint: mean survival time, dose: 50.0 mg/kg/injection, schedule: Q01DX009 (ip), vehicle: other) 93 % of control; (endpoint: mean survival time, dose: 100.0 mg/kg/injection, schedule: Q01DX009 (ip), vehicle: other) 93 % of control and 109 % of control.
As to `CC(=O)CC(=O)NC1CCCC1`, the T/C by setting is: under setting [2], 103 % of control; under setting [3], 100 % of control; under setting [4], 100 % of control; under setting [5], 100 % of control; under setting [6], 100 % of control; under setting [7], 100 % of control.
For `CCC(=O)Nc1ccc(OS(=O)(=O)N(C)C)cc1`, the T/C is 100 % of control under setting [9]; 95 % of control (endpoint: mean survival time, dose: 200.0 mg/kg/injection, schedule: Q01DX001 (ip), vehicle: saline with Tween-80); 100 % of control under setting [8].
As for `O=NN(CCCl)C(=O)Nc1ccc(S(=O)(=O)F)cc1`, the T/C (endpoint: mean survival time, dose: 500.0 mg/kg/injection, schedule: Q01DX001 (ip), vehicle: carboxymethylcellulose (CMC)) is 110 % of control.
For the compound `CCC(O)(COC(N)=O)c1ccccc1` (stereo not drawn), the T/C is, setting by setting: under setting [10], 97 % of control; under setting [11], 108 % of control; under setting [12], 94 % of control.
With `CCCCSc1ncnc2c1ncn2C1CCCCO1` (stereo not drawn), the T/C was 102 % of control under setting [13]; 104 % of control under setting [14]; 94 % of control (endpoint: mean survival time, dose: 100.0 mg/kg/injection, schedule: Q01DX009 (ip), vehicle: saline sonified); 103 % of control under setting [3]; 102 % of control under setting [15]; 90 % of control (endpoint: mean survival time, dose: 200.0 mg/kg/injection, schedule: Q01DX009 (ip), vehicle: saline sonified). Moreover, the T/C under setting [5] is 113 % of control; the T/C under setting [16] is 113 % of control; the T/C (endpoint: mean survival time, dose: 400.0 mg/kg/injection, schedule: Q01DX009 (ip), vehicle: saline sonified) was 113 % of control; the T/C under setting [7] is 124 % of control.
For `CC(C)CC(NC(=O)OC(C)(C)C)C(=O)O` (stereo not drawn), the T/C by setting is: (endpoint: mean survival time, dose: 100.0 mg/kg/injection, schedule: Q01DX001 (ip), vehicle: other) 104 % of control; (endpoint: mean survival time, dose: 200.0 mg/kg/injection, schedule: Q01DX001 (ip), vehicle: other) 93 % of control; (endpoint: mean survival time, dose: 400.0 mg/kg/injection, schedule: Q01DX001 (ip), vehicle: other) 98 % of control.
Take `CCN(CC)C(=O)OCCCN(C)C`: the T/C runs as follows: under setting [1], 96 % of control; (endpoint: mean survival time, dose: 100.0 mg/kg/injection, schedule: Q04DX003 (ip), vehicle: saline) 105 % of control; (endpoint: mean survival time, dose: 200.0 mg/kg/injection, schedule: Q04DX003 (ip), vehicle: saline) 105 % of control.
As to `Nc1ccc(I)c([N+](=O)[O-])c1`, the T/C by setting is: (endpoint: mean survival time, dose: 100.0 mg/kg/injection, schedule: Q04DX003 (ip), vehicle: acetone) 87 % of control; (endpoint: mean survival time, dose: 200.0 mg/kg/injection, schedule: Q04DX003 (ip), vehicle: acetone) 92 % of control; (endpoint: mean survival time, dose: 400.0 mg/kg/injection, schedule: Q04DX003 (ip), vehicle: acetone) 101 % of control.
Turning to `COC(=O)c1cccc(C(=O)CC(=O)c2ccccc2)c1`, the T/C is 90 % of control under setting [2], 95 % of control under setting [4] and 88 % of control under setting [6].
`Oc1ccccc1C=Nc1cnc2ccccc2c1`: the T/C runs as follows: under setting [10], 95 % of control; under setting [11], 98 % of control; under setting [12], 95 % of control.
Turning to `[O-]/[N+](=N/O)c1ccc(Cl)cc1`, the T/C (endpoint: mean survival time, dose: 25.0 mg/kg/injection, schedule: Q01DX001 (ip), vehicle: saline with Tween-80) is 96 % of control; the T/C (endpoint: mean survival time, dose: 25.0 mg/kg/injection, schedule: Q01DX009 (ip), vehicle: saline with Tween-80) was 100 % of control; the T/C (endpoint: mean survival time, dose: 25.0 mg/kg/injection, schedule: Q04DX003 (ip), vehicle: saline with Tween-80) was 103 % of control; the T/C (endpoint: mean survival time, dose: 50.0 mg/kg/injection, schedule: Q01DX001 (ip), vehicle: saline with Tween-80) is 92 % of control; the T/C (endpoint: mean survival time, dose: 50.0 mg/kg/injection, schedule: Q01DX009 (ip), vehicle: saline with Tween-80) is 94 % of control; the T/C (endpoint: mean survival time, dose: 50.0 mg/kg/injection, schedule: Q04DX003 (ip), vehicle: saline with Tween-80) was 94 % of control. For the same compound, the T/C reads like this: under setting [9], 100 % of control; under setting [17], 92 % of control.
As to `CN(C)CCCN1CCCCC1`, the T/C was 106 % of control under setting [13], 115 % of control under setting [14], 110 % of control under setting [15] and 104 % of control under setting [16].
For `CC(C)OC(=O)C(NC=O)C(C)(C)S` (stereo not drawn), the T/C reads like this: under setting [17], 93 % of control; (endpoint: mean survival time, dose: 200.0 mg/kg/injection, schedule: Q04DX003 (ip), vehicle: saline with Tween-80) 102 % of control; (endpoint: mean survival time, dose: 400.0 mg/kg/injection, schedule: Q04DX003 (ip), vehicle: saline with Tween-80) 97 % of control.
In the case of `O=C(OCC1OC(n2cnc3c(=S)nc[nH]c32)C(OC(=O)c2ccc([N+](=O)[O-])cc2)C1OC(=O)c1ccc([N+](=O)[O-])cc1)c1ccc([N+](=O)[O-])cc1` (stereo not drawn), the T/C reads like this: (endpoint: mean survival time, dose: 16.5 mg/kg/injection, schedule: Q01DX009 (ip), vehicle: saline with Tween-80) 95 % of control; (endpoint: mean survival time, dose: 33.0 mg/kg/injection, schedule: Q01DX009 (ip), vehicle: saline with Tween-80) 117 % of control; under setting [14], 121 % of control; (endpoint: mean survival time, dose: 100.0 mg/kg/injection, schedule: Q01DX Z (ip), vehicle: other) 112 % of control; (endpoint: mean survival time, dose: 132.0 mg/kg/injection, schedule: Q01DX001 (ip), vehicle: saline) 111 % of control and 118 % of control; under setting [15], 106 % of control and 120 % of control. The T/C was 152 % of control (endpoint: mean survival time, dose: 200.0 mg/kg/injection, schedule: Q01DX009 (ip), vehicle: saline); 117 % of control (endpoint: mean survival time, dose: 300.0 mg/kg/injection, schedule: Q01DX001 (ip), vehicle: saline); 93 % of control (endpoint: mean survival time, dose: 800.0 mg/kg/injection, schedule: Q01DX Z (ip), vehicle: other).
